The values that follow come from ChEMBL document CHEMBL5034040, “Amide-to-Ester Substitution as a Strategy for Optimizing PROTAC Permeability and Cellular Activity” (J Med Chem, 2021).

The data set is described as follows: Permeability of the compound in PBS at pH 7.4 after 16 hrs by PAMPA. Particulars: read-out: Peff. The data set is classed as ADME. A general note: In PAMPA a lipid-coated filter parts donor from acceptor wells.

SMILES strings stand for the structures.

`Cc1ncsc1-c1ccc([C@H](C)NC(=O)[C@@H]2C[C@@H](O)CN2C(=O)[C@@H](NC(=O)COCCCOCCNC(=O)C[C@@H]2N=C(c3ccc(Cl)cc3)c3c(sc(C)c3C)-n3c(C)nnc32)C(C)(C)C)cc1`: the Papp at 16 h was determined as 0.2 ×10⁻⁶ cm/s.

As to `Cc1ncsc1-c1ccc(CNC(=O)[C@@H]2C[C@@H](O)CN2C(=O)[C@@H](NC(=O)COCCOCCOCCNC(=O)C[C@@H]2N=C(c3ccc(Cl)cc3)c3c(sc(C)c3C)-n3c(C)nnc32)C(C)(C)C)cc1`, the Papp at 16 h came out at 0.01 ×10⁻⁶ cm/s.
